Data reported in ChEMBL document CHEMBL5236576, “Discovery of a potent M5 antagonist with improved clearance profile. Part 2: Pyrrolidine amide-based antagonists” (Bioorg Med Chem Lett, 2022).
Calls of active or inactive are those of the source. The rule behind the calls is not given here.

Tests used:
[1] = biological target: T1, Muscarinic acetylcholine receptor M5 (Homo sapiens) (UniProt P08912); experiment: Antagonist activity at human muscarinic M5 receptor expressed in CHO cells assessed as minimal acetylcholine response by calcium mobilisation assay relative to control; assay type: cell-based; set-up: concentration or dose not given beside the values
T1 sequence (whole entry): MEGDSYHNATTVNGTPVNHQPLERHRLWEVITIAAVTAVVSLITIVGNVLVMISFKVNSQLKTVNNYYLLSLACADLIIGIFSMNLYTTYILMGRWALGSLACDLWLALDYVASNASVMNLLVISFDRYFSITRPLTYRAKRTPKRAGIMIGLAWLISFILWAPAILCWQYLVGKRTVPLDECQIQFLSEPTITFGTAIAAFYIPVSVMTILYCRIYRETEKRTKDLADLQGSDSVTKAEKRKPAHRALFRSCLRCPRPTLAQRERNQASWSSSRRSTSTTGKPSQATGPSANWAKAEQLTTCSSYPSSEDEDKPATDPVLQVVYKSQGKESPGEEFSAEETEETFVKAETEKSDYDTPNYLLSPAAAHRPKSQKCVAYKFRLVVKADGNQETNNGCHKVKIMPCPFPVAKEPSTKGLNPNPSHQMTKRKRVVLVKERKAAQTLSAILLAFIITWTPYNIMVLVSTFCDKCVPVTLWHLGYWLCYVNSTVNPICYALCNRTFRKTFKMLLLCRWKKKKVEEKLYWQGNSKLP

[2] = Intrinsic clearance in rat; assay type: ADME
[3] = Intrinsic clearance in human; assay type: ADME
[4] = Lipophilicity, logD of the compound at pH 7.4; assay type: physicochemical; details: buffer
[5] = biological target: T2, Muscarinic acetylcholine receptor M5 (Homo sapiens, UniProt P08912); experiment: (§1) Antagonist activity at human muscarinic M5 receptor expressed in CHO cells in the presence of acetylcholine by calcium mobilisation assay; assay type: cell-based
T2 sequence (P08912 whole entry): T1 sequence (whole entry)

[6] = biological target: T1, Muscarinic acetylcholine receptor M5 (Homo sapiens); experiment: as §1; assay type: cell-based
[7] = biological target: T3, Muscarinic acetylcholine receptor M5 (Rattus norvegicus) (UniProt P08911); experiment: Antagonist activity at rat muscarinic M5 receptor expressed in CHO cells assessed as minimal acetylcholine response by calcium mobilisation assay relative to control; assay type: cell-based; set-up: scale not given: the % may be the effect or the level left; details: filed as antagonist
T3 sequence (whole entry): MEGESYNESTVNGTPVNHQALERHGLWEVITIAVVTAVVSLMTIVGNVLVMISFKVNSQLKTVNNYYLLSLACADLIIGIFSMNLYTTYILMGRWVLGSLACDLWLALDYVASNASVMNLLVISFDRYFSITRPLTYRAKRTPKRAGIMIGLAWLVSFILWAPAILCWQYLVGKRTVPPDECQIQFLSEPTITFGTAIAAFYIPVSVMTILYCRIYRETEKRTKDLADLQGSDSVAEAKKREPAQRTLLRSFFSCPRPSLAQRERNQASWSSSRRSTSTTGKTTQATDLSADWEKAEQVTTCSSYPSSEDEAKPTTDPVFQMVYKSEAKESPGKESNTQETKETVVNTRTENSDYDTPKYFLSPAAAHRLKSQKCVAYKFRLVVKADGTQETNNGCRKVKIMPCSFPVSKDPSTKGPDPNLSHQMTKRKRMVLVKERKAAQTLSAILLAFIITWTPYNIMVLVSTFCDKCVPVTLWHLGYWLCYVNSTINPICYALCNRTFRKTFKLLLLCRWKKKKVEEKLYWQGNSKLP

[8] = Unbound fraction in rat plasma; assay type: ADME, cell-free
[9] = Unbound fraction in rat brain; assay type: ADME, tissue-based
[10] = Unbound fraction in human plasma; assay type: ADME, cell-free
[11] = biological target: T4, Muscarinic acetylcholine receptor M5 (Rattus norvegicus, UniProt P08911); experiment: Antagonist activity at rat muscarinic M5 receptor expressed in CHO cells in the presence of acetylcholine by calcium mobilisation assay; assay type: cell-based
T4 sequence (P08911 whole entry): T3 sequence (whole entry)

[12] = tested on: P-glycoprotein; experiment: Efflux ratio of permeability in MDCK-MDR1 cells expressing P-glycoprotein; assay type: ADME, cell-based, Canis lupus familiaris; details: dog
[13] = biological target: T5, Muscarinic acetylcholine receptor M4 (Homo sapiens, UniProt P08173); experiment: Antagonist activity at human muscarinic M4 receptor expressed in CHO cells in the presence of acetylcholine by calcium mobilisation assay; assay type: cell-based
T5 sequence (P08173 whole entry): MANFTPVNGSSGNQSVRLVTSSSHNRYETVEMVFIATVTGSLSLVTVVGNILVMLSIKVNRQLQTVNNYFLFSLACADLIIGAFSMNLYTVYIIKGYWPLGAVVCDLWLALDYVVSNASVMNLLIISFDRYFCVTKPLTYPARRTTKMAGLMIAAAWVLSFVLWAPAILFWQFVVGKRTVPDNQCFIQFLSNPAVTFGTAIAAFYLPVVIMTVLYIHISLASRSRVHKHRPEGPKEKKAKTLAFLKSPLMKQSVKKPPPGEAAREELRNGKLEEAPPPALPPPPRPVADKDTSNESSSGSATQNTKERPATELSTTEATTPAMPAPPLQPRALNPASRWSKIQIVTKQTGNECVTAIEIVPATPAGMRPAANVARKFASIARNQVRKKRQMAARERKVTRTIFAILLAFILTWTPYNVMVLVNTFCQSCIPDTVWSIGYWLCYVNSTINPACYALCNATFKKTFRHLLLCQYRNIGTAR

[14] = biological target: T6, Muscarinic acetylcholine receptor M1 (Homo sapiens) (UniProt P11229); experiment: Antagonist activity at human muscarinic M1 receptor expressed in CHO cells assessed as minimal acetylcholine response by calcium mobilisation assay relative to control; assay type: cell-based; set-up: scale not given: the % may be the effect or the level left; details: filed as antagonist
T6 sequence (whole entry): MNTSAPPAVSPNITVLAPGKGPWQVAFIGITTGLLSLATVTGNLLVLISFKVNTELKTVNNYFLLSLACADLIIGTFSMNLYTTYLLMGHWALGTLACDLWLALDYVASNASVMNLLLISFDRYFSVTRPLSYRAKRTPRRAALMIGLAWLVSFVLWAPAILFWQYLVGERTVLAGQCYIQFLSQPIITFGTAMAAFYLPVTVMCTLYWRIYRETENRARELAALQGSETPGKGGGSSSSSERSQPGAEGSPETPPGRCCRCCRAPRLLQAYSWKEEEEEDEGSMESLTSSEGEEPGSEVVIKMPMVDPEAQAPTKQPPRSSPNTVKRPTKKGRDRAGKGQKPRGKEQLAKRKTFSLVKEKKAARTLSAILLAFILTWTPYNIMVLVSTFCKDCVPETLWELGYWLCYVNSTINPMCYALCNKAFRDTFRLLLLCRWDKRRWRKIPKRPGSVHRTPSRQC

[15] = biological target: T7, Muscarinic acetylcholine receptor M1 (Homo sapiens, UniProt P11229); experiment: Antagonist activity at human muscarinic M1 receptor expressed in CHO cells in the presence of acetylcholine by calcium mobilisation assay; assay type: cell-based
T7 sequence (P11229 whole entry): T6 sequence (whole entry)

[16] = Apparent permeability in MDCK-MDR1 cells; assay type: ADME, cell-based, Canis lupus familiaris; details: dog
[17] = biological target: T1, Muscarinic acetylcholine receptor M5 (Homo sapiens); experiment: Potency index, ratio of VU6027831 IC50 to test compound IC50 for antagonist activity at human M5 muscarinic receptor
[18] = biological target: T3, Muscarinic acetylcholine receptor M5 (Rattus norvegicus); experiment: Antagonist activity at rat muscarinic M5 receptor assessed as minimal acetylcholine response relative to control; set-up: scale not given: the % may be the effect or the level left; details: filed as antagonist

Structure (SMILES)	Activity ([1]; filed as antagonist) [%]	CLint scaled [2] [mL/min/kg]	CLint scaled [3] [mL/min/kg]	logD [4]	IC50 [5] [µM]	other results
O=C(Nc1ccc2scnc2c1)C12CC1CN(S(=O)(=O)c1ccc3c(c1)CCO3)C2 (racemic)	2	396	115	2.88	0.27	
O=C(Nc1ccc2scnc2c1)[C@@H]1CCN(S(=O)(=O)c2cccnc2)C1				1.65		Activity [6]: inactive
O=C(Nc1ccc2scnc2c1)[C@@H]1CCN(S(=O)(=O)c2ccc3c(c2)CCO3)C1	2	356	50.6	2.53	0.021	Activity ([1]; filed as antagonist, tested as the 2H-labelled form): 2%
O=C(Nc1ccc2scnc2c1)[C@@H]1CCN(S(=O)(=O)c2ccc(Cl)nc2)C1				2.41		Activity [6]: inactive
O=C(Nc1ccc2scnc2c1)[C@H]1CN(S(=O)(=O)c2ccc3c(c2)CCO3)C[C@@H]1C(F)(F)F				3.65		Activity [6]: inactive
Cc1ccc(S(=O)(=O)N2CC[C@@H](C(=O)Nc3ccc4scnc4c3)C2)cn1	41			1.85	> 10	
O=C(Nc1ccc2scnc2c1)[C@@H]1CCN(S(=O)(=O)c2ccc3c(c2)OCO3)C1	3	267	30	2.43		
O=C(Nc1ccc2scnc2c1)[C@@H]1CCN(S(=O)(=O)c2ccc3ncccc3c2)C1	3	191	42	1.99		
[2H]C1([2H])Oc2ccc(S(=O)(=O)N3CC[C@@H](C(=O)Nc4ccc5scnc5c4)C3)cc2C1([2H])[2H]		168	50	2.45		
C[C@@H]1CN(S(=O)(=O)c2ccc3c(c2)CCO3)C[C@@H]1C(=O)Nc1ccc2scnc2c1	3	769	202	2.88	0.035	
O=C(Nc1ccc2scnc2c1)[C@@H]1CCN(S(=O)(=O)c2ccc3ncsc3c2)C1	2	51	33	2.04		Activity [7]: 4%; Fu [8]: 0.01; fraction unbound [9]: 0.08; Fu [10]: 0.12; IC50 [11]: 0.55 µM
O=C(Nc1ccc2scnc2c1)C1CN(S(=O)(=O)c2ccc3c(c2)CCO3)C1	2	301	61			
C[C@H]1CN(S(=O)(=O)c2ccc3c(c2)CCO3)C[C@@H]1C(=O)Nc1ccc2scnc2c1	2	51	5	2.94	0.087	efflux ratio [12]: 32.3; IC50 [13]: > 10 µM; Activity [7]: 2%; Activity [14]: 8%; IC50 [15]: > 10 µM; Fu [8]: 0.01; fraction unbound [9]: 0.05; Papp [16]: 1.75 10^-6 cm/s; Fu [10]: 0.03; IC50 [11]: 0.19 µM
Cc1nn(C)cc1S(=O)(=O)N1CC[C@@H](C(=O)Nc2ccc3scnc3c2)C1	6			1.62		
O=C(Nc1ccc2scnc2c1)C1CCN(S(=O)(=O)c2ccc3c(c2)CCO3)C1 (stereo unspecified)	2	252	72		0.047	Ratio IC50 [17]: 2
O=C(Nc1ccc2scnc2c1)C1CCN(S(=O)(=O)c2ccc3c(c2)CCO3)CC1						Activity [18]: 3%
O=C(Nc1ccc2scnc2c1)[C@H]1CCN(S(=O)(=O)c2ccc3c(c2)CCO3)C1	3	201	64	2.51	0.44	
O=C(Nc1ccc2scnc2c1)[C@@H]1CCN(S(=O)(=O)c2ccc3c(c2)CCC3)C1	31			3.54		
Cn1cc(S(=O)(=O)N2CC[C@@H](C(=O)Nc3ccc4scnc4c3)C2)c(C(F)(F)F)n1				2.62	> 10	Activity [1]: 59%
